Tested on: human skin tissue
Experiment: Penetration rate of AI compound in AI-helper composition through human skin in vitro, modified Franz cells
Format: in vitro ADME
Settings: for Skin penetration rate of Al compound: Al compound 0.5% w/v; for Skin penetration rate of Al compound / Skin penetration rate of AI compound: 25 °C; for Skin penetration rate of alpha-lipoic acid: 20° C.
Method: Penetration rate of AI compound in the AI-helper composition through human skin were measured in vitro by modified Franz cells. A Franz cell had two chambers: the top sample chamber and the bottom receiving chamber. The human skin tissue (450-500 μm thick) that separated the top and the receiving chambers was isolated from the anterior or posterior thigh areas.

[1] = 2-(Diethylamino)ethyl 2-(4-isobutylphenyl)propionate hydrochloride 6% w/v, water
[2] = D-Phenylalanine isopropyl ester hydrochloride 6% w/v, water
[3] = Dialkylaminoalkyl 2-(4-isobutylphenyl)propionate: None
[4] = L-Phenylalanine isopropyl ester hydrochloride 6% w/v, water
[5] = no isoleucine ester (None), AI compound 0.5 % w/v in water
[6] = no leucine ester (None), AI compound 0.5 % w/v in water
[7] = no tryptophan ester (None), AI compound 0.5 % w/v in water
[8] = with D-isoleucine isopropyl ester hydrochloride 6 % w/v in water, AI compound 0.5 % w/v
[9] = with D-leucine isopropyl ester hydrochloride 6 % w/v in water, AI compound 0.5 % w/v
[10] = with D-tryptophan isopropyl ester hydrochloride 6 % w/v in water, AI compound 0.5 % w/v
[11] = with L-isoleucine isopropyl ester hydrochloride 6 % w/v in water, AI compound 0.5 % w/v
[12] = with L-leucine isopropyl ester hydrochloride 6 % w/v in water, AI compound 0.5 % w/v
[13] = with L-tryptophan isopropyl ester hydrochloride 6 % w/v in water, AI compound 0.5 % w/v

Compound | Skin penetration rate of Al compound [1] [μg/cm^2/h] | Skin penetration rate of Al compound [2] [μg/cm^2/h] | Skin penetration rate of Al compound [3] [μg/cm^2/h] | Skin penetration rate of Al compound [4] [μg/cm^2/h] | Skin penetration rate of Al compound (Phenylalanine ester: None) [μg/cm^2/h] | Skin penetration rate of AI compound [5] [μg/cm^2/h] | Skin penetration rate of AI compound [6] [μg/cm^2/h] | Skin penetration rate of AI compound [7] [μg/cm^2/h] | Skin penetration rate of AI compound [8] [μg/cm^2/h] | Skin penetration rate of AI compound [9] [μg/cm^2/h] | Skin penetration rate of AI compound [10] [μg/cm^2/h] | Skin penetration rate of AI compound [11] [μg/cm^2/h] | Skin penetration rate of AI compound [12] [μg/cm^2/h] | Skin penetration rate of AI compound [13] [μg/cm^2/h] | further results
N[C@@H](CCC(=O)N[C@@H](CS)C(=O)NCC(=O)O)C(=O)O [Glutathione] | 16.356 ± 3.011 | 17.526 ± 2.451 | 0.012 ± 0.010 | 17.358 ± 2.259 | 0.016 ± 0.009 | 0.013 ± 0.011 | 0.011 ± 0.008 | 0.008 ± 0.013 | 14.581 ± 2.183 | 14.121 ± 2.131 | 18.126 ± 3.451 | 14.698 ± 2.321 | 14.128 ± 2.119 | 17.978 ± 3.479 | 
Oc1ccc(C=Cc2cc(O)cc(O)c2)cc1 [Resveratrol] | 18.568 ± 3.112 | 18.745 ± 3.112 | 0.015 ± 0.011 | 18.978 ± 2.135 | 0.015 ± 0.011 | 0.016 ± 0.010 | 0.013 ± 0.011 | 0.017 ± 0.021 |  | 16.028 ± 2.862 | 20.728 ± 3.962 | 16.236 ± 2.805 | 16.126 ± 3.005 | 20.177 ± 3.195 | 
NCCS(=O)(=O)O [Taurine] | 8.711 ± 1.871 | 8.339 ± 2.178 | 0.012 ± 0.006 | 8.372 ± 2.237 | 0.011 ± 0.006 | 0.009 ± 0.007 | 0.008 ± 0.009 | 0.005 ± 0.008 | 7.521 ± 2.312 | 7.231 ± 2.386 | 9.131 ± 2.321 | 7.247 ± 2.076 | 7.175 ± 2.257 | 9.172 ± 2.117 | 
Vitamin B12 | 8.127 ± 3.211 | 8.156 ± 2.875 | 0.016 ± 0.008 | 8.236 ± 3.057 | 0.012 ± 0.006 | 0.0011 ± 0.006 | 0.008 ± 0.009 | 0.007 ± 0.011 | 6.816 ± 2.372 | 6.756 ± 2.325 | 8.718 ± 3.125 | 6.873 ± 3.061 | 6.813 ± 3.111 | 8.897 ± 3.211 | 
O=C(O)CCCCC1CCSS1 (stereo not drawn) [Alpha-lipoic acid] | 30.478 ± 2.982 | 31.796 ± 3.176 | 0.056 ± 0.032 | 32.878 ± 3.568 | 0.058 ± 0.047 | 0.057 ± 0.036 | 0.051 ± 0.023 | 0.071 ± 0.063 | 28.013 ± 2.078 | 27.476 ± 2.116 | 35.456 ± 2.476 | 28.897 ± 2.126 | 28.377 ± 2.378 | 36.378 ± 2.978 | Skin penetration rate of alpha-lipoic acid (0.5% alpha-lipoic acid without helper esters): 0.071 ± 0.063 μg/cm^2/h; Skin penetration rate of alpha-lipoic acid (alpha-lipoic acid 0.5% w/v, Tryptophan isopropyl ester•HA 6% w/v, HA = 1/2H2SO4, water): 33.928 ± 2.876 μg/cm^2/h; Skin penetration rate of alpha-lipoic acid (alpha-lipoic acid 0.5% w/v, Tryptophan isopropyl ester•HA 6% w/v, HA = 1/3H3PO4, water): 34.321 ± 2.867 μg/cm^2/h; Skin penetration rate of alpha-lipoic acid (alpha-lipoic acid 0.5% w/v, Tryptophan isopropyl ester•HA 6% w/v, HA = 2/3H3PO4, water): 34.691 ± 3.511 μg/cm^2/h; Skin penetration rate of alpha-lipoic acid (alpha-lipoic acid 0.5% w/v, Tryptophan isopropyl ester•HA 6% w/v, HA = Acetic acid, water): 35.006 ± 2.892 μg/cm^2/h; Skin penetration rate of alpha-lipoic acid (alpha-lipoic acid 0.5% w/v, Tryptophan isopropyl ester•HA 6% w/v, HA = Benzoic acid, water): 34.665 ± 3.019 μg/cm^2/h; Skin penetration rate of alpha-lipoic acid (alpha-lipoic acid 0.5% w/v, Tryptophan isopropyl ester•HA 6% w/v, HA = Butyric acid, water): 35.178 ± 3.598 μg/cm^2/h; Skin penetration rate of alpha-lipoic acid (alpha-lipoic acid 0.5% w/v, Tryptophan isopropyl ester•HA 6% w/v, HA = Citric acid, water): 35.371 ± 3.587 μg/cm^2/h; Skin penetration rate of alpha-lipoic acid (alpha-lipoic acid 0.5% w/v, Tryptophan isopropyl ester•HA 6% w/v, HA = H2SO4, water): 33.780 ± 2.891 μg/cm^2/h; Skin penetration rate of alpha-lipoic acid (alpha-lipoic acid 0.5% w/v, Tryptophan isopropyl ester•HA 6% w/v, HA = HBr, water): 35.211 ± 3.285 μg/cm^2/h; Skin penetration rate of alpha-lipoic acid (alpha-lipoic acid 0.5% w/v, Tryptophan isopropyl ester•HA 6% w/v, HA = HCl, water): 35.456 ± 2.476 μg/cm^2/h; Skin penetration rate of alpha-lipoic acid (alpha-lipoic acid 0.5% w/v, Tryptophan isopropyl ester•HA 6% w/v, HA = HF, water): 34.673 ± 3.156 μg/cm^2/h; Skin penetration rate of alpha-lipoic acid (alpha-lipoic acid 0.5% w/v, Tryptophan isopropyl ester•HA 6% w/v, HA = HI, water): 34.467 ± 2.583 μg/cm^2/h; Skin penetration rate of alpha-lipoic acid (alpha-lipoic acid 0.5% w/v, Tryptophan isopropyl ester•HA 6% w/v, HA = Lactic acid, water): 35.007 ± 2.879 μg/cm^2/h
Vitamin E | 19.783 ± 4.025 | 21.363 ± 2.015 | 0.012 ± 0.006 | 21.357 ± 3.120 | 0.016 ± 0.011 | 0.016 ± 0.009 | 0.012 ± 0.007 | 0.008 ± 0.008 | 19.321 ± 3.012 | 19.723 ± 3.046 | 22.783 ± 3.145 | 19.412 ± 3.076 | 19.611 ± 3.126 | 23.657 ± 4.120 | 
O=C1O[C@H]([C@@H](O)CO)C(O)=C1O [Vitamin C] | 10.112 ± 2.322 | 10.378 ± 2.155 | 0.016 ± 0.012 | 10.301 ± 2.022 | 0.017 ± 0.015 | 0.011 ± 0.008 | 0.008 ± 0.010 | 0.007 ± 0.013 | 8.526 ± 2.271 | 8.256 ± 2.078 | 11.136 ± 2.385 | 8.369 ± 2.102 | 8.378 ± 2.152 | 11.345 ± 2.612 | 
CC1=C(/C=C/C(C)=C/C=C/C(C)=C/C=C/C=C(C)/C=C/C=C(C)/C=C/C2=C(C)C(=O)[C@@H](O)CC2(C)C)C(C)(C)C[C@H](O)C1=O [Astaxanthin] | 12.331 ± 2.182 | 12.431 ± 2.178 | 0.019 ± 0.010 | 12.341 ± 2.042 | 0.019 ± 0.011 | 0.013 ± 0.009 | 0.010 ± 0.008 | 0.012 ± 0.013 | 11.354 ± 2.452 | 11.134 ± 2.183 |  | 11.431 ± 2.312 | 11.251 ± 2.112 |  | 

— patent US9962369B2, “Methods and compositions for transdermal delivery” (SPRAYABLE HOLDINGS, INC., priority 2014, dated 2018)
